Experimental data from US20140037620A1, “Methods of Treating Breast Cancer with Gemcitabine Therapy” (British Columbia Cancer Agency Branch, priority 2012, published 2014).
Like-named read-outs stand apart in the source and are kept apart here.

Experiments:
[1] = system: women with locally advanced or metastatic breast cancer; conditions: for effect on OS / relative reduction for TTP: GD v D; for relative reduction in mortality from the addition of gemcitabine to docetaxel compared to docetaxel alone: patients with basal-like subtype (PAM50)
Experimental: Patients were randomly assigned to docetaxel (100 mg/m^2) day 1, every 21 days or gemcitabine (1000 mg/m^2) days 1 and 8 plus docetaxel (75 mg/m^2) day 8. Patients were either previously untreated, had prior anthracycline-based (neo)adjuvant chemotherapy or had received a single prior anthracycline-based chemotherapy regimen for metastatic breast cancer. The Danish Breast Cancer Cooperative Group (DBCG) prepared the original protocol as well as the biomarker supplement, and the Danish National Committee on Biomedical Research Ethics has approved the original protocol as well as the add-on (KF 02-045-01 and H-KF-02-045-01) before their activation. Time to progression (TTP) was the primary endpoint for the original trial as well as this biomarker sub-study (Nielsen et al., JCO 2011; 29:4748-4754). Overall survival (OS) and response rate (RR) were secondary endpoints. TTP was measured from random assignment to date of documented progression with censoring at date of last visit or of death. OS was calculated from date of random assignment to date of death with censoring for surviving patients at last visit date. Time-to-event endpoints (TTP and OS) were estimated by the Kaplan-Meier method, and PAM50 subtypes were compared using the log-rank test. Analyses of PAM50 subtypes were done unadjusted and adjusted for preselected covariates in multivariate Cox proportional hazards models. […] The adjusted model was further stratified for previous chemotherapy (Nielsen et al., JCO 2011; 29:4748-4754). The assumption of proportional hazards was assessed by Schoenfeld residuals. Analyses were done to assess whether treatment effects on TTP and OS varied according to PAM50 subtypes or the levels of preselected variables. The multivariate Cox proportional hazards model was extended by one interaction term at a time. The interaction terms were tested using the Wald test and results were given in a Forest plot. RR was evaluated for patients with measurable disease. […] RRs were compared by using Fisher's exact test.

[2] = system: women with locally advanced or metastatic breast cancer; conditions: original trial, 337 women, GD v D; cited from earlier work

## gemcitabine plus docetaxel [GD]
[1]; basal-like patients, Kaplan-Meier estimates
  gain in median overall survival, doublet arm compared to monotherapy arm: 10 months
[1]; multivariate Cox regression, interaction test
  effect on TTP across PAM50 intrinsic subtypes: TTP seemed equally improved in PAM50 intrinsic subtypes
[1]; patients with HER2-enriched subtype
  effect on OS: significantly worsened OS
[1]; patients with HER2 amplified tumors
  risk of TTP events and mortality in the doublet arm compared to single agent docetaxel: higher risk of TTP events
[1]; patients with basal-like breast cancer
  effect on OS: significantly improved OS
[1]; patients with basal-like breast cancer, listed as gemcitabine and docetaxel
  effect on OS: more substantial reduction in mortality
[1]
  relative reduction in mortality from the addition of gemcitabine to docetaxel compared to docetaxel alone: 71%
[1]; listed as gemcitabine plus docetaxel
  relative reduction in mortality from the addition of gemcitabine to docetaxel compared to docetaxel alone: 73%
[1]; patients with basal-like subtype
  relative reduction for TTP: 63%
[1]; patients with highly proliferative subtypes (non-luminal A)
  benefit from adding gemcitabine to docetaxel: No support was found for a more general benefit
[1]; patients with non-basal-like subtypes
  survival benefit compared with docetaxel monotherapy: no significant incremental survival benefit
[1]; patients with other (non-basal-like) subtypes
  relative reduction for TTP: 37%
[2]
  HR for OS, treatment effect in the original study: 0.94
  HR for TTP, treatment effect in the original study: 0.68
